Experimental data from US20060069132A1, “Azolecarboxamide herbicides” (priority 2004, published 2006).

Assays:
soybean = assay: Test C pre-/postemergence herbicide test; type: in vivo, Glycine max; conditions: for Soybean plant response rating: Preemergence, 500 g ai/ha
Method in brief: (§1)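 Seeds were planted and sprayed preemergence with test chemicals in a non-phytotoxic solvent mixture containing surfactant; postemergence treatments went onto plants 2 to 18 cm tall (1- to 4-leaf stage). After 12 to 14 days in a greenhouse, injury was rated visually against untreated controls on a 0–100 scale.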

[1] = test system: smallflower umbrella sedge; assay: Test C flooded paddy test; type: in vivo, Cyperus difformis
goosegrass = assay: Test C pre-/postemergence herbicide test; type: in vivo, Eleusine indica; conditions: for Goosegrass plant response rating: Preemergence, 500 g ai/ha
Method in brief: as §1

kochia = assay: Test C pre-/postemergence herbicide test; type: in vivo, Kochia scoparia; conditions: for Kochia plant response rating: Preemergence, 500 g ai/ha
Method in brief: as §1

rice = assay: Test B pre-/postemergence herbicide test; type: in vivo, Oryza sativa; conditions: preemergence; for Rice plant response rating (0 to 100 scale): 0 = no effect, 100 = complete control
Method in brief: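 Formulation: non-phytotoxic solvent mix with surfactant. Timing: preemergence on seed and postemergence on 2–18 cm plants, applied concurrently. Readout after 13–15 d greenhouse: visual 0–100 control rating against controls.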

[2] = test system: common (oilseed) sunflower; assay: Test C pre-/postemergence herbicide test; type: in vivo, Helianthus annuus; conditions: for Sunflower plant response rating: Preemergence, 500 g ai/ha, scale 0 to 100, 0 no effect, 100 complete control
Method in brief: as §1

bermudagrass = assay: Test C pre-/postemergence herbicide test; type: in vivo, Cynodon dactylon
Method in brief: as §1

morningglory [3] = assay: Test C pre-/postemergence herbicide test; type: in vivo, Ipomoea coccinea; design: key to Plant response rating, Morningglory: 0 = no effect, 100 = complete control; conditions: for Morningglory plant response rating: Preemergence, 500 g ai/ha
Method in brief: as §1

giant foxtail = assay: Test C pre-/postemergence herbicide test; type: in vivo, Setaria faberi; conditions: for Foxtail, Giant plant response rating: Preemergence, 500 g ai/ha
Method in brief: as §1

morningglory [4] = assay: Test A pre-/postemergence herbicide test; type: in vivo, Ipomoea spp.
Method in brief: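 Seeds sown in sandy loam received a preemergence directed soil spray of compound in non-phytotoxic solvent with surfactant; postemergence plants (2–10 cm, one- to two-leaf stage) were sprayed to runoff at the same time. After ~10 days in greenhouse, injury was rated visually versus untreated controls (0 = no effect, 100 = complete control).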

[5] = 62 g ai/ha, preemergence, scale 0 to 100
[6] = 125 g ai/ha, scale 0 (no effect) to 100 (complete control), visual, 12 to 14 days, preemergence
[7] = scale 0 to 100, 0 no effect, 100 complete control
[8] = 500 g ai/ha, visual rating 0-100, 0 no effect, 100 complete control
[9] = 62 g ai/ha, preemergence, scale 0 to 100, 0 no effect, 100 complete control
[10] = 250 g ai/ha, scale 0 to 100 (0 no effect, 100 complete control), visual, 12 to 14 days, preemergence
[11] = Preemergence, 500 g ai/ha, scale 0 to 100, 0 no effect, 100 complete control
[12] = 31 g ai/ha, preemergence, scale 0 to 100
[13] = Postemergence, 250 g ai/ha, scale 0 to 100, 0 no effect, 100 complete control
[14] = postemergence, 125 g ai/ha, scale 0 to 100
[15] = postemergence, 62 g ai/ha, scale 0 to 100
[16] = Postemergence, 500 g ai/ha, 0 to 100 scale, 0 no effect, 100 complete control
[17] = Postemergence, 2000 g ai/ha, 0 to 100 scale, 0 no effect, 100 complete control
[18] = Preemergence, 500 g ai/ha, visual rating, 0 to 100 scale (0 no effect, 100 complete control)
[19] = 125 g ai/ha, 0 to 100 scale, 0 is no effect, 100 is complete control
[20] = Preemergence, 2000 g ai/ha, visual rating, 0 to 100 scale (0 no effect, 100 complete control)
[21] = 250 g ai/ha, scale 0-100, preemergence

CCc1nn(C(C)(C)C)cc1C(=O)Nc1cccc(C(C)=NO)c1 [Compound 188]
Plant response rating, Soybean (soybean; [5]): 0 | Plant response rating, Soybean (soybean; [6]): 0 | Soybean plant response rating (soybean; [7]): 0 | Sedge, Umbrella plant response rating ([1]; 62 g ai/ha, scale 0 to 100 (0 no effect, 100 complete control)): 30 | Sedge, Umbrella plant response rating ([1]; 125 g ai/ha, scale 0 to 100 (0 no effect, 100 complete control)): 75 | Sedge, Umbrella plant response rating ([1]; 250 g ai/ha, scale of 0 to 100, 0 is no effect, 100 is complete control): 80 | Plant response rating, Sedge, Umbrella ([1]; 500 g ai/ha, visual rating after 12 to 14 days, scale 0 to 100 (0 no effect, 100 complete control)): 85 | Plant response rating, Goosegrass (goosegrass; [5]): 15 | Plant response rating, Goosegrass (goosegrass; [6]): 70 | Goosegrass plant response rating (goosegrass; [7]): 90 | Plant response rating, Kochia (kochia; [5]): 0 | Plant response rating, Kochia (kochia; [6]): 0 | Kochia plant response rating (kochia; [7]): 95 | Rice plant response rating (0 to 100 scale) (rice; 125 g ai/ha): 50 | Plant response rating, Rice (rice; [8]): 70 | Plant response rating, Sunflower [2, 5]: 0 | Plant response rating, Sunflower [2, 6]: 0 | Sunflower plant response rating [2]: 0 | Plant response rating, Bermudagrass (bermudagrass; [9]): 75 | Plant response rating, Bermudagrass (bermudagrass; [6]): 100 | Plant response rating, Bermudagrass (bermudagrass; [10]): 100 | Bermudagrass plant response rating (bermudagrass; [11]): 100 | Plant response rating, Morningglory (morningglory [3]; [5]): 0 | Morningglory plant response rating (morningglory [3]; [7]): 75 | Plant response rating, Foxtail, Giant (giant foxtail; [5]): 0 | Plant response rating, Foxtail, Giant (giant foxtail; [6]): 55 | Plant response rating, Foxtail, Giant (giant foxtail; [10]): 70 | Foxtail, Giant plant response rating (giant foxtail; [7]): 100

CCn1nc(C(C)(C)C)cc1C(=O)Nc1ccc(F)c(C(=O)NCCF)c1 [Compound 60]
Plant response rating, Soybean (soybean; [12]): 0 | Plant response rating (0 = no effect, 100 = complete control), Soybean (soybean; 62 g ai/ha, preemergence): 0 | Plant response rating, Soybean (soybean; [6]): 0 | Plant response rating, Soybean (soybean; [10]): 0 | Plant response rating, Soybean (soybean; [13]): 50 | Plant response rating, Soybean (soybean; [14]): 40 | Plant response rating, Soybean (soybean; [15]): 20 | Plant response rating, Morningglory (morningglory [4]; [16]): 10 | Plant response rating, Morningglory (morningglory [4]; [17]): 20 | Morningglory plant response rating (morningglory [4]; [18]): 10 | Morningglory plant response rating (morningglory [4]; Preemergence, 2000 g ai/ha, 0 to 100 scale, 0 no effect, 100 complete control): 40 | Plant response rating, Goosegrass (goosegrass; [12]): 10 | Plant response rating (0 = no effect, 100 = complete control), Goosegrass (goosegrass; 62 g ai/ha, preemergence): 55 | Plant response rating, Goosegrass (goosegrass; [6]): 85 | Plant response rating, Goosegrass (goosegrass; [10]): 95 | Plant response rating, Goosegrass (goosegrass; [13]): 5 | Plant response rating, Goosegrass (goosegrass; [14]): 0 | Plant response rating, Goosegrass (goosegrass; [15]): 0 | Plant response rating, Kochia (kochia; [12]): 80 | Plant response rating (0 = no effect, 100 = complete control), Kochia (kochia; 62 g ai/ha, preemergence): 80 | Plant response rating, Kochia (kochia; [6]): 90 | Plant response rating, Kochia (kochia; [10]): 90 | Plant response rating, Kochia (kochia; [13]): 20 | Plant response rating, Kochia (kochia; [14]): 20 | Plant response rating, Kochia (kochia; [15]): 10 | Plant response rating, Rice (rice; [19]): 30 | Plant response rating, Sunflower [2, 12]: 0 | Plant response rating (0 = no effect, 100 = complete control), Sunflower ([2]; 62 g ai/ha, preemergence): 0 | Plant response rating, Sunflower [2, 6]: 0 | Plant response rating, Sunflower [2, 10]: 0 | Plant response rating, Bermudagrass (bermudagrass; [12]): 30 | Plant response rating (0 = no effect, 100 = complete control), Bermudagrass (bermudagrass; 62 g ai/ha, preemergence): 80 | Plant response rating, Bermudagrass (bermudagrass; [6]): 100 | Plant response rating, Bermudagrass (bermudagrass; [10]): 100 | Bermudagrass plant response rating (bermudagrass; Postemergence, 250 g ai/ha, scale 0 to 100): 5 | Plant response rating, Bermudagrass (bermudagrass; [14]): 0 | Plant response rating, Bermudagrass (bermudagrass; postemergence, 31 g ai/ha, scale 0 to 100): 0 | Plant response rating, Bermudagrass (bermudagrass; [15]): 0 | Plant response rating, Morningglory (morningglory [3]; [12]): 0 | Plant response rating (0 = no effect, 100 = complete control), Morningglory (morningglory [3]; 62 g ai/ha, preemergence): 0 | Plant response rating, Morningglory (morningglory [3]; [6]): 5 | Plant response rating, Morningglory (morningglory [3]; [10]): 10 | Plant response rating, Morningglory (morningglory [3]; [13]): 10 | Plant response rating, Morningglory (morningglory [3]; [14]): 10 | Plant response rating, Morningglory (morningglory [3]; [15]): 10 | Plant response rating, Foxtail, Giant (giant foxtail; [12]): 0 | Plant response rating (0 = no effect, 100 = complete control), Foxtail, Giant (giant foxtail; 62 g ai/ha, preemergence): 0 | Plant response rating, Foxtail, Giant (giant foxtail; [6]): 15 | Plant response rating, Foxtail, Giant (giant foxtail; [10]): 80 | Plant response rating, Foxtail, Giant (giant foxtail; [13]): 5 | Plant response rating, Foxtail, Giant (giant foxtail; [14]): 5 | Plant response rating, Foxtail, Giant (giant foxtail; [15]): 0

CCNC(=O)c1cc(C)nc(NC(=O)c2cc(C(C)(C)C)nn2CC)c1 [Compound 149]
Plant response rating, Soybean (soybean; [5]): 0 | Plant response rating, Soybean (soybean; [6]): 0 | Soybean plant response rating (soybean; [7]): 0 | Morningglory plant response rating (morningglory [4]; [16]): 30 | Plant response rating, Morningglory (morningglory [4]; [17]): 60 | Morningglory plant response rating (morningglory [4]; [18]): 30 | Morningglory plant response rating (morningglory [4]; [20]): 65 | Plant response rating, Goosegrass (goosegrass; [5]): 10 | Plant response rating, Goosegrass (goosegrass; [6]): 70 | Goosegrass plant response rating (goosegrass; [7]): 90 | Plant response rating, Kochia (kochia; [5]): 0 | Plant response rating, Kochia (kochia; [6]): 10 | Kochia plant response rating (kochia; [7]): 90 | Plant response rating, Rice (rice; [8]): 30 | Plant response rating, Rice (rice; [19]): 20 | Plant response rating, Sunflower [2, 5]: 0 | Plant response rating, Sunflower [2, 6]: 0 | Sunflower plant response rating [2]: 0 | Plant response rating, Bermudagrass (bermudagrass; [9]): 30 | Plant response rating, Bermudagrass (bermudagrass; [6]): 90 | Plant response rating, Bermudagrass (bermudagrass; [10]): 90 | Bermudagrass plant response rating (bermudagrass; [11]): 95 | Plant response rating, Morningglory (morningglory [3]; [5]): 0 | Plant response rating, Morningglory (morningglory [3]; [6]): 5 | Morningglory plant response rating (morningglory [3]; [7]): 60 | Plant response rating, Foxtail, Giant (giant foxtail; [5]): 0 | Plant response rating, Foxtail, Giant (giant foxtail; [6]): 50 | Plant response rating, Foxtail, Giant (giant foxtail; [10]): 60 | Foxtail, Giant plant response rating (giant foxtail; [7]): 100

C=CCNC(=O)c1cccc(NC(=O)c2sc(C(C)(C)C)nc2C)c1 [Compound 202]
Plant response rating, Soybean (soybean; [5]): 0 | Plant response rating, Soybean (soybean; [6]): 0 | Plant response rating, Soybean (soybean; [21]): 0 | Soybean plant response rating (soybean; [7]): 30 | Morningglory plant response rating (morningglory [4]; [16]): 75 | Plant response rating, Morningglory (morningglory [4]; [17]): 75 | Morningglory plant response rating (morningglory [4]; [20]): 70 | Morningglory plant response rating (morningglory [4]; preemergence, 500 g ai/ha, visual injury, 0 to 100 scale (0 no effect, 100 complete control)): 15 | Plant response rating, Goosegrass (goosegrass; [5]): 20 | Plant response rating, Goosegrass (goosegrass; [6]): 85 | Plant response rating, Goosegrass (goosegrass; [21]): 90 | Goosegrass plant response rating (goosegrass; [7]): 95 | Plant response rating, Kochia (kochia; [5]): 60 | Plant response rating, Kochia (kochia; [6]): 85 | Plant response rating, Kochia (kochia; [21]): 85 | Kochia plant response rating (kochia; [7]): 95 | Rice plant response rating (0 to 100 scale) (rice; 125 g ai/ha): 10 | Plant response rating, Rice (rice; [8]): 30 | Plant response rating, Sunflower [2, 5]: 0 | Plant response rating, Sunflower [2, 6]: 0 | Plant response rating, Sunflower [2, 21]: 10 | Sunflower plant response rating [2]: 10 | Plant response rating, Bermudagrass (bermudagrass; [9]): 20 | Plant response rating, Bermudagrass (bermudagrass; [6]): 85 | Plant response rating, Bermudagrass (bermudagrass; [21]): 95 | Bermudagrass plant response rating (bermudagrass; [11]): 100 | Plant response rating, Morningglory (morningglory [3]; [5]): 0 | Plant response rating, Morningglory (morningglory [3]; [6]): 55 | Plant response rating, Morningglory (morningglory [3]; [21]): 80 | Morningglory plant response rating (morningglory [3]; [7]): 85 | Plant response rating, Foxtail, Giant (giant foxtail; [5]): 0 | Plant response rating, Foxtail, Giant (giant foxtail; [6]): 40 | Plant response rating, Foxtail, Giant (giant foxtail; [21]): 80 | Foxtail, Giant plant response rating (giant foxtail; [7]): 100
